Test results: US8420889B2, “Epicatechin glucosyltransferase” (priority 2008, dated 2013)

Tested on: recombinant UGT72L1-MBP
Test: UGT72L1 glucosyltransferase assay with potential acceptor substrates and 14C-UDP-Glucose
Description: All assays were performed in triplicate for 1 hour at 30° C. along with boiled enzyme controls.
For studying pH optima, the buffers were 179 mM MES pH 5.0-7.0, and 179 mM Tris-HCl pH 7.0-9.0. Potential acceptor substrates were (−)-epicatechin, (−)-epigallocatechin, (+)-catechin, (+)-gallocatechin, procyanidins B1 and B2, cyanidin, dihydroquercetin, quercetin, kaemferol, apigenin, luteolin, liquiritigenin, daidzein and genistein (Sigma-Aldrich, St Louis, Mo.).

[1] = UDP-glucose as sugar donor, 0.1 mM acceptor substrate, 1 hour at 30° C., pH 7.5

SMILES	activity for glucosylation (in words) [1]	other results
O=c1cc(-c2ccc(O)c(O)c2)oc2cc(O)cc(O)c12 [luteolin]	not active	
O=c1cc(-c2ccc(O)cc2)oc2cc(O)cc(O)c12 [apigenin]	not active	
O=C1c2c(O)cc(O)cc2O[C@H](c2ccc(O)c(O)c2)[C@H]1O [dihydroquercetin]	not active	
Oc1cc(O)c2c(c1)O[C@H](c1ccc(O)c(O)c1)[C@H](O)C2 [(−)-epicatechin]		Km (recombinant MBP-UGT72L1 fusion protein): 11.5 µM
O=c1c(-c2ccc(O)cc2)coc2cc(O)cc(O)c12 [genistein]	not active	
O=c1c(O)c(-c2ccc(O)c(O)c2)oc2cc(O)cc(O)c12 [quercetin]	not active	
Oc1cc(O)c2c(c1)O[C@H](c1cc(O)c(O)c(O)c1)[C@H](O)C2 [(−)-epigallocatechin]		activity for glucosylation, relative to the activity with epicatechin [1]: 27%
